According to patent publication US9820483B2, “Microbial composition” (Rohm and Haas Company, priority 2011, dated 2017):
Like-named read-outs stand apart in the source and are kept apart here.

Tests used:
[1] = system: E. coli ATCC #10536; assay: Synergy test: high resolution MBC microtiter plate assay in phosphate buffer containing 35% dipropylene glycol, 15 seconds contact; assay type: cell-based, Escherichia coli; conditions: E. coli 10536, complete kill in 15 seconds, phosphate buffer with 35% DPG
Text: One measure of synergy is the industrially accepted method described by Kull, F. C.; Eisman. P. C.; Sylwestrowicz, H. D. and Mayer, R. L., in Applied Microbiology 9:538-541 (1961), using the ratio determined by the formula: Qa/QA÷Qb/QB=Synergy Index (“SI”) wherein: QA=concentration of compound A (first component) in percent, acting alone, which produced an end point (MBC of Compound A). […]=concentration of compound A in percent, in the mixture, which produced an end point. QB=concentration of compound B (second component) in percent, acting alone, which produced an end point (MBC of Compound B). Qb=concentration of compound B in percent, in the mixture, which produced an end point.
When the sum of Qa/QA and Qb/QB is greater than one, antagonism is indicated. […] The lower the SI, the greater is the synergy shown by that particular mixture. The minimum biocidal concentration (MBC) of a microbicide is the lowest concentration tested under a specific set of conditions that provides complete kill of the tested microorganisms.
Synergy tests were conducted using standard microtiter plate assays with phosphate buffer containing 35% dipropylene glycol (DPG). In this method, a wide range of combinations of chemicals was tested by conducting high resolution MBC assays of Component (A) in the presence of various concentrations of Component (B). High resolution MBCs were determined by adding varying amounts of microbicide to one column of a microtiter plate and doing subsequent ten-fold dilutions using an automated liquid handling system to obtain a series of closely spaced endpoints. The MBC plate was inoculated one column at a time with the test microorganism. An aliquot of the inoculated well was transferred at 15 seconds to a plate containing a neutralizing agent (D/E Neutralizing Broth), mixed and held for 5 minutes before being transferred to a growth plate containing trypticase soy broth (TSB). The TSB plate was incubated at 37° C. and read for the presence/absence of growth at 24 hours. The lowest level tested that provided complete kill (as evidenced by no growth in the microtitre plate) of the test organisms in 15 seconds is the minimum biocidal concentration (MBC).
The synergy of the combinations of the present invention was determined against a bacterium, Esherichia coli (E. coli—ATCC #10536), at a concentration of approximately 1×10^8 bacteria per mL. This microorganism is representative of natural contaminants in many consumer and industrial applications.

[2] = system: Escherichia coli (E. coli—ATCC #10536); assay: Automated assessment of efficacy in model surfactant base (2.85% sodium cocoyl glycinate + 1.85% sodium lauroamphoacetate, pH 10), 15 seconds exposure, delta OD450/OD590 in D/E quench; assay type: cell-based; conditions: for MBC: in 2.85% sodium cocoyl glycinate + 1.85% sodium lauroamphoacetate solution at pH 10, E. coli
Method: Solutions were prepared such that the concentrations of the surfactant components and test actives were 1.1× the final desired concentration in order to allow for dilution with the bacterial inoculum in the test. The solutions were manually adjusted to pH 10.0 by dropwise addition of sodium hydroxide solution, as measured with a pH meter at ambient temperature.
Tests were conducted using standard microtiter plate assays using an automated liquid handling system. 270 μl of the surfactant test solution was pipetted into each well of the microtitre plate and 30 μl of the bacterial suspension was then added. After exactly 15 seconds of bacterial exposure, a 30 μl volume of bacterial cells was withdrawn and transferred to 270 μl of D/E quench solution. After 5 minutes in the D/E quench, the optical density (OD) was measured for each plate in turn at two specific wavelengths (450 nm and 590 nm). These provide a dual check of antimicrobial activity, as the OD450 reading is specific for the yellow colour of D/E quench when bacterial growth is observed, whereas OD590 is specific for the initial purple colour of the D/E quench which is retained if no bacterial growth is observed. After the time zero OD measurements, plates were then incubated at 37° C. overnight (16 hours) before repeating the OD measurements. Delta OD values were calculated by subtracting […]. Bacterial growth is observed as an increase in OD450 and a decrease in ΔOD590. To identify antibacterially efficacious systems (those preventing appreciable bacterial growth after incubation), the following threshold changes in OD readings have been adopted: if (1). OD450 increases by less than 0.2 absorbance unit on incubation and (2). OD590 decreases by less than 0.35 unit on incubation. Conversely, where OD450 increases by more than 0.2 AU and OD590 decreases by more than 0.35 unit after incubation, corresponding to a colour shift from purple to yellow, the test system allows bacterial growth and is not deemed efficacious. Four replicate measurements in the same plate have been made for each test system. The number of replicate wells showing either bacterial growth or no growth is also readily assessed by eye by following the colour change.
Dose responses for individual components and binary mixtures of actives at a fixed concentration ratio were generated by sequential dilution of liquors with further surfactant solution to obtain a series of endpoints.
In some selected cases, the combinations were also tested at the weight ratio 1:1.
The method used was the same as in the above Table.

[3] = system: Staphylococcus aureus (10788 strain); assay: Antimicrobial efficacy of actives against S. aureus in water, 15 seconds contact, NMBS; assay type: cell-based; conditions: for NMBS: 15 s
Method: Selected materials were also tested against a representative Gram positive Staphylococcus aureus.
The following assay describes the testing of 8 materials using 6 dilutions across half of a 96-well micro titre plate (MTP). Using this approach it is possible to assay 16 actives (without replicates) with one full dilution plate, replicating this set up in two halves of the plate columns, 1-6 and 7-12.
Bacterial stock (30 μl) was then added to the prepared 270 μl of the solution of actives in the Screening Plate and mixed, using a multichannel pipette with 8 tips to aspirate and dispense the same volume of bacterial stock in parallel to 8 wells in rows A-H. After a contact time of 15 seconds, the mixtures were quenched by transferring 30 μl volumes of the mixtures into the 270 μl D/E neutralising solution in the prepared dilution plate, using aspiration to mix. After exactly 5 minutes in the D/E neutralising solution, […] were transferred from column 1 to column 2 of the Dilution MTP and mixed, before transferring further 30 μl volumes from column 2 into column 3. This process was repeated serially diluting the bacteria across the plate to column 6.
30 μl volumes from each well in the Dilution MTP were transferred onto pre-labelled segment of Tryptone Soya Agar (TSA) plates starting from the lowest bacterial concentration (highest dilution, column 6) to the highest bacterial concentration (column 1). The TSA plates were allowed to stand for ca. 2 hours so that the 30 μl inocula spots could dry and the plates were then inverted and incubated overnight at 37° C. before enumerating the bacterial colonies at the labelled dilutions to determine the effects of the actives on bacterial growth.
Mean bacterial survival numbers NMBS (expressed in Log CFU/ml) are obtained by first determining the segment of the TSA plate where the number of bacterial colonies is countable. From the colony number in this segment. NMBS is calculated by the formula: NMBS=log {Ncol·10^DF·100/3} Here, Ncol is the colony count, and DF is the dilution factor taken from the MTP-well corresponding to the TSA plate segment (i.e. DF may range from 1 for the quench, to 6 for the highest dilution). The factor 100/3 is a conversion factor from the volume of the inocula spot to one milliliter.
Every assay test was performed in triplicate.
Thus, a value of NMBS as of about 7 corresponds to a count of about […] from the fifth dilution well, i.e. with DF=5. Such a count of about 7 is generally observed when bacteria are exposed to non-biocidal materials. In case no surviving colonies are observed in any segment of the TSA plate, this is interpreted as complete kill and a value of NMBS=0 is reported.
S. aureus Bacterial stock was prepared as shown below and the antibacterial efficacy of the active was carried out as explained earlier for E. Coli.
An overnight culture of Staphylococcus aureus (10788 strain) was inoculated onto a Tripticase Soy Agar (TSA) plate and grown for ca. 18 hrs at 37° C. The culture of S. aureus was washed from the plate using sterile saline (0.85% NaCl) solution and a sterile spreader and suspended in 50 ml saline. This suspension was separated into equal volumes and centrifuged at 4000 rpm for 15 minutes. Following centrifugation the pellet was re-suspended in saline to give a final concentration of 0.35 OD620 equivalent to about 10^8 cells per milliliter for this particular organism. Here. OD620 indicates the absorbance of a sample in a cuvette of 1.0 cm path length at a wavelength of 620 nm. This bacterial stock was used for assaying against antimicrobial actives (in triplicate).

[4] = system: S. aureus ATCC 6538; assay: Synergy of terpinyl alcohols with phenolic compounds in water, 15 seconds contact, plate count log reduction; assay type: cell-based, Staphylococcus aureus; conditions: 0.1% alone
Method: Liquid actives were used directly. Solid actives were dissolved in alcohol and a 50% stock was made.
The culture was grown overnight in Tryptone soya agar. It was suspended in saline (0.85% NaCl) to a con. of 1.5×10^8-5×10^8 cells/ml
To 9 ml water the actives were added to give the desired concentration. 1 ml of the culture was added and mixed. After 15 seconds contact 1 ml aliquot was removed and added to a neutraliser and kept for 5 minutes. A control of untreated cells was similarly processed. It was then diluted and plated. The plates were incubated at 37° C. for 24 hours. The colonies on the plates were counted. The counts were converted to log10. The log. no. of survivors was determined and log reduction calculated.

[5] = system: Escherichia coli (10536 strain); assay: Antimicrobial efficacy in water, 15 seconds contact, mean bacterial survival NMBS on TSA plates; assay type: cell-based; conditions: E. coli, 15 s
Method: Antimicrobial efficacy is tested against a representative pathogenic bacterial organism, Gram negative Escherichia coli. Concentrations of actives are expressed in terms of the percentage weight/volume (% w/v) throughout the following Examples. […] Here, OD620 indicates the absorbance of a sample in a cuvette of 1.0 cm path length at a wavelength of 620 nm. This bacterial stock was used for assaying against antimicrobial actives (in triplicate). The following assay describes the testing of 8 materials using 6 dilutions across half of a 96-well micro titre plate (MTP). […] 1M solutions of the test actives were prepared in dimethylsulphoxide (DMSO). […] This MTP was labelled as the “Screening plate”. […] The composition of the neutralising solution was as follows: pancreatic digest of casein, 5.0 g/L; […] 270 μl of tryptone diluent solution was added to all the remaining wells of the Dilution MTP (columns 2-6). […] After a contact time of 15 seconds, the mixtures were quenched by transferring 30 μl volumes of the mixtures into the 270 μl D/E neutralising solution in the prepared dilution plate, using aspiration to mix. […] Mean bacterial survival numbers NMBS (expressed in Log CFU/ml) are obtained by first determining the segment of the TSA plate where the number of bacterial colonies is countable. From the colony number in this segment. NMBS is calculated by the formula: […] DF may range from 1 for the quench, to 6 for the highest dilution). The factor 100/3 is a conversion factor from the volume of the inocula spot to one milliliter. Every assay test was performed in triplicate. The reported mean bacterial survival results are the average of such a triplet, the error is the corresponding standard deviation. […] Such a count of about 7 is generally observed when bacteria are exposed to non-biocidal materials.

[6] = Escherichia coli, ATCC10536, 15 s, read-out: MBC

## C=C(C)C1CC=C(C)C(O)C1 (stereo not drawn) [2-methyl-5-(prop-1-en-2-yl)cyclohex-2-enol]
[1]
  MBC of the component acting alone (QA or QB; Qa or Qb with the other component at 0): 0.7 weight %
[2]; [6]
  MBC: 4000 µg/mL
[2]; single active at 0.2% w/v
  No. of replicates showing growth (out of 4): 4
  Δ OD 590 nm = OD590 (time = 16 hours) − OD590 (time zero), Mean: 0.61
  ΔOD 450 nm = OD450 (time = 16 hours) − OD450 (time zero), Mean: −0.51
[2]; single active at 0.3% w/v
  No. of replicates showing growth (out of 4): 4
  Δ OD 590 nm = OD590 (time = 16 hours) − OD590 (time zero), Mean: 0.59
  ΔOD 450 nm = OD450 (time = 16 hours) − OD450 (time zero), Mean: −0.50
[2]; single active at 0.4% w/v
  No. of replicates showing growth (out of 4): 4
  Δ OD 590 nm = OD590 (time = 16 hours) − OD590 (time zero), Mean: 0.47
  ΔOD 450 nm = OD450 (time = 16 hours) − OD450 (time zero), Mean: −0.35
[2]; single active at […] w/v
  No. of replicates showing growth (out of 4): 4
  Δ OD 590 nm = OD590 (time = 16 hours) − OD590 (time zero), Mean: 0.63
  ΔOD 450 nm = OD450 (time = 16 hours) − OD450 (time zero), Mean: −0.50
[3]; 0.5% w/v alone, S. aureus
  NMBS: 7.27 log CFU/ml

## CC=Cc1ccccc1O [2-propenylphenol]
[4]
  Log reduction S. aureus ATCC 6538: 1.92

## CCCc1ccccc1O [2-n-propylphenol]
[5]; 0.06% w/v alone
  NMBS: 7.68 log CFU/ml
[2]
  MBC: 0.175 % w/v
[2]; single active at 0.05% w/v
  No. of replicates showing growth (out of 4): 4
  Δ OD 590 nm = OD590 (time = 16 hours) − OD590 (time zero), Mean: 0.46
[2]; single active at […] w/v
  No. of replicates showing growth (out of 4): 4
  Δ OD 590 nm = OD590 (time = 16 hours) − OD590 (time zero), Mean: 0.66
[3]; 0.03% w/v alone, S. aureus
  NMBS: 7.12 log CFU/ml
[3]; […] 2-propylphenol alone, S. aureus
  bacterial kill (in words): Complete bacterial kill
[3]; component alone, against S. aureus, in water
  MBC: 0.25 % w/v

## C=C(C)C1CCC(C)CC1O (stereo not drawn) [isopulegol, 5-methyl-2-(prop-1-en-2-yl)cyclohexanol]
[5]; 0.3% w/v alone
  NMBS: 0 log CFU/ml
[5]; 0.4% w/v alone
  NMBS: 0 log CFU/ml
[5]; […] w/v alone
  NMBS: 7.77 log CFU/ml
[5]; component alone, in water
  MBC: 0.3 % (w/v)
[2]; [6]
  MBC: > 5000 µg/mL
[2]; single active at 0.3% w/v
  No. of replicates showing growth (out of 4): 4
  Δ OD 590 nm = OD590 (time = 16 hours) − OD590 (time zero), Mean: 0.61
  ΔOD 450 nm = OD450 (time = 16 hours) − OD450 (time zero), Mean: −0.49
[2]; single active at 0.5% w/v
  No. of replicates showing growth (out of 4): 2
  Δ OD 590 nm = OD590 (time = 16 hours) − OD590 (time zero), Mean: 0.42
  ΔOD 450 nm = OD450 (time = 16 hours) − OD450 (time zero), Mean: −0.09
[2]; single active at […] w/v
  No. of replicates showing growth (out of 4): 4
  Δ OD 590 nm = OD590 (time = 16 hours) − OD590 (time zero), Mean: 0.59
  ΔOD 450 nm = OD450 (time = 16 hours) − OD450 (time zero), Mean: −0.54
